Data on twelve molecules can be found in patent publication US5391489A, “Proteolytic enzymes from hyperthermophilic bacteria and processes for their production” (Johns Hopkins University, priority 1993, dated 1995).

For test [1], the system named is purified SDS-resistant proteolytic enzyme preparation. Description: Effect of denaturing agents on activity of the purified protease (standard azocasein assay). Type of test: biochemical, Pyrococcus furiosus. The settings on record: for percentage of original activity: standard assay conditions; for loss of proteolytic activity: 1 molar, at 98° C. for at least 30 minutes. As to the method: Several denaturing agents were added to azocasein, both in the presence and absence of the protease, to control of possible degradation of the substrate in the presence of the agents. […] Thus, high concentrations of urea and guanidinium chloride led to significant abiotic hydrolysis of azocasein such that results were difficult to interpret. The increases in relative activity above 100% are likely the result of the denaturing agents acting to make the azocasein substrate more susceptible to enzymatic hydrolysis.
(§1) Determination of proteolytic activity was based on the cleavage of azocasein (Cowan, D. A., et al., 1987, Biochem, J. 247:121-133). Assay mixtures contained 900 μl of 0.1% azocasein in 0.05M sodium phosphate buffer (pH 7.3 at 100° C.), and 100 μl of sample. The reaction was terminated by the addition of 500 μl of 15% (w/v) trichloracetic acid, and the cooled on ice for 5 min. The precipitate formed was removed by centrifugation at 12,000×g for 3 min in a microcentrifuge. Color release as a result of proteolytic activity was detected by measuring the absorbance of the supernatant at 440 nm. Linear response of the assay was obtained between 0.010 and 0.100 absorbance units. A unit of activity is defined as the amount of protein which produces a change of 0.100 absorbance units at 440 nm for a 30 min. incubation at a given temperature. Total protein was measured using the BioRad assay kit.
(§2) Purified samples of the SDS-resistant protease were obtained by incubation of the cell-free extract for 24 hours in the presence of 1% SDS at 98° C. Extracts treated in this way were then dialyzed against 5 mM sodium phosphate buffer, pH 7.5 at 4° C. overnight and concentrated in a Pharmacia Omegacell Stirred Cell (nominal molecular weight limit of 10 kDa) to a concentration of 2-3 mg/ml protein measured by the Bio-Rad protein assay kit.

The test system is the same in test [2]. Briefly: Effects of solvents on purified SDS-resistant proteolytic enzyme preparation. The test is classed as biochemical, Pyrococcus furiosus. As to the method:
as §1, §2

Test [3] shares this test system. Description: Inhibitor studies on purified SDS-resistant proteolytic enzyme preparation. Type of test: biochemical, Pyrococcus furiosus. The settings on record: for inhibition: concentrations below 150 μM; for inhibition at point of complete saturation: reached at 400 μM. Here is the method: FIG. 7. Effect of chelating inhibitors EDTA and EGTA on activity at 98° C. of purified SDS-resistant proteolytic enzyme preparation from Pyrococcus furiosus. Samples of purified enzyme preparation were assayed in the standard azocasein with the inhibitor concentrations indicated.
as §1, with “Linear response of the assay was obtained between 0.010 and 0.100 absorbance units.” left out
as §2

Test [4] is described as follows: Hydrolysis of synthetic substrate benzoyl DL-arginine p-nitroanilide. The test is classed as biochemical. The settings on record: at 60° C. Here is the method:
(§3) For tests on the substrate specificity of the purified SDS-resistant preparation, benzoyl-L-arginine ethyl ester, benzoyl-DL-arginine p-nitroanilide, serum thymic factor, angiotensin I, and trypsin were obtained from Sigma. Assays of benzoyl-L-arginine ethyl ester and benzoyl-arginine p-nitroanilide were performed as described previously (Schwert, G. W. et al., 1955, Biochem. Biophys. Acta 16:570-575; Erlanger, B. F., et al., 1961, Arch. Biochem. Biophys. 95:271-278) with a change in buffers to 50 mM sodium phosphate buffer, pH 7.5, and a substrate preincubation of two minutes at standard assay temperature.

For the next test, the system named is angiotensin I. Briefly: Hydrolysis of peptide angiotensin I (reverse phase separation of products). The test is classed as biochemical. The settings on record: after two hours at 40° C. As to the method:
FIG. 8. Comparison of hydrolysis products of angiotensin I polypeptide by trypsin and purified SDS-resistant proteolytic enzyme preparation ("Pyrolysin") showing similarity of cleavage except for one additional cleavage by the novel enzyme preparation.
A chromatogram of the cleavage products of angiotensin I after exposure to the purified P. furiosus protease and to trypsin is shown in FIG. 8.
Hydrolysis of peptides was conducted with a modification of a procedure described by Cowan et al., 1987, Biochem. J. 247:121-133). The peptides serum thymic factor and angiotensin I were incubated with the protease from P. furiosus for fifteen and sixty minutes at 98° C., and two hours with trypsin at 40° C. End products were separated by reverse phase chromatography on a Waters high-performance liquid chromatography system using a WISP auto injector and μ-Bondapak C18 with a linear gradient of acetonitrile and water, with 0.1% trifluoroacetic acid in both phases. Peaks from the reverse phase column were dried down in a Savant Speed-Vac and analyzed by Waters Pico-Tag amino acid analysis.

A short description of test [5]: Hydrolysis of synthetic substrate benzoyl-L-arginine ethyl ester. Type of test: biochemical. The settings on record: at 60° C. As to the method:
as §3

Where two headings read alike, the source gives them in different places.

With `O[C@H](CS)[C@H](O)CS` (racemic) [dithiothreitol], the “percentage of original activity” value in test [1] (10 mM) is given as 39.5%.
For the molecule `CC#N` [Acetonitrile], the “% Activity” value turned out to be 77% in test [2] (20% (v/v) solvent), 71% in test [2] (50% (v/v) solvent) and 39% in test [2] (70% (v/v) solvent).
In the case of `CN(C)C=O` [Dimethylformamide], the “% Activity” value in test [2] (10% (v/v) solvent) was found to be 80%; in test [2] (50% (v/v) solvent) it was 13%; in test [2] (100% solvent), 25%.
In general, % inhibition refers to the relative decrease from the control value, in per cent. Higher therefore signals a response far below the control. In the case of `O=C(O)CN(CCN(CC(=O)O)CC(=O)O)CC(=O)O` [EDTA], the “% inhibition” value in test [3] (100 μM inhibitor) was found to be 7.8%; in test [3] (500 μM inhibitor), 51%; in test [3] (10 mM inhibitor), 49%. In test [3], the inhibition entry is reported as “no inhibition”. Besides, in test [3], the “inhibition at point of complete saturation” value is given as “about 50%”.
For `O=C(O)CN(CCOCCOCCN(CC(=O)O)CC(=O)O)CC(=O)O` [EGTA, [Ethylenebis(oxyethylenenitrilo)]tetraacetic acid], in that order: 7.8%, 51%, 49%, “no inhibition” and “about 50%”.
Turning to `N=C(N)N` [guanidinium chloride], the “percentage of original activity” value in test [1] (1M denaturant) was determined as 256%; in test [1] (2M denaturant), 299%. In test [1], the “loss of proteolytic activity” value is reported as “no loss of proteolytic activity”.
Turning to `O=C(O)CI` [iodoacetic acid], the “% inhibition” value in test [3] is reported as 0%.
On to `O=C(O)c1cc[c]([Hg][Cl])cc1` [p-chloromercuribenzoate], for which the “% inhibition” value in test [3] (10 mM inhibitor) was determined as 40%.
Regarding `O=S(=O)(F)Cc1ccccc1` [phenyl methylsulfonyl fluoride], the “% inhibition” value in test [3] (10 mM inhibitor) worked out at 0%.
For `NC(N)=O` [urea], the “loss of proteolytic activity” value in test [1] was “no loss of proteolytic activity”. For the same molecule, the “percentage of original activity” value in test [1] (2M denaturant) worked out at 124%; in test [1] (4M denaturant), 138%.
Consider `OCCS` [β-mecaptoethanol], for which, in test [1] (150 mM), the “percentage of original activity” value was determined as 57%.

B1: trypsin (protein, UniProt P00760 24-246, looked up)
Serine protease 1: IVGGYTCGANTVPYQVSLNSGYHFCGGSLINSQWVVSAAHCYKSGIQVRLGEDNINVVEGNEQFISASKSIVHPSYNSNTLNNDIMLIKLKSAASLNSRVASISLPTSCASAGTQCLISGWGNTKSSGTSYPDVLKCLKAPILSDSSCKSAYPGQITSNMFCAGYLEGGKDSCQGDSGGPVVCSGKLQGIVSWGSGCAQKNKPGVYTKVCNYVSWIKQTIASN
notes: comparison protease obtained from Sigma
Turning to B1, the hydrolysis of substrate result in test [4] and in test [5] was “effective” in each case. Also, the remaining uncleaved peptide entry in the test with angiotensin I is on record as “still a portion of uncleaved angiotensin I”.
